Test results: patent US10583094B2

What was measured:
SUR1 = SUR1 knockdown by antisense ODN infusion at gelfoam implantation site; R1 astrocyte response to Na azide; assay type: cell-based, rat; details: for Depolarization of R1 astrocytes on Na azide: Na azide 1 mM
Text: To further test involvement of SUR1, SUR1 expression was “knocked down” in situ by infusing oligodeoxynucleotide (ODN) for 14 days using a mini-osmotic pump, with the delivery catheter placed in the gelfoam implantation site in the brain, in the otherwise standard model we use for R1 astrocyte isolation ([…] et al., 1980, […] et al., 2002, […] et al., 2000, […] et al., 1999). Knockdown of SUR1 expression (SUR1KD) was achieved using antisense (AS; [NT] ID NO: 9)) (Yokoshiki et al., 1999) oligodeoxynucleotide (ODN), with scrambled ([…] ID NO: 10)) ODN being used as control. […] In R1 astrocytes from SUR1KD, however, Na azide had little effect on resting membrane potential (FIG. 24D).

[1] = test system: freshly isolated R1 astrocytes; test: Na azide-induced blebbing and cell death of freshly isolated R1 astrocytes
MMP-9 & MMP-2 = test: Zymography of gelatinase activity of recombinant enzyme and stroke tissue; assay type: biochemical; details: glibenclamide 10 μM; MMP inhibitor II 300 nM
Description: Activation of MMP-9 & MMP-2 in stroke tissue was compared to controls.
Next, the supernatants underwent a gelatinase purification process with gelatin-Sepharose 4B (Pharmacia), and Zymography was performed on the purified supernatants in sodium dodecyl sulfate gels containing gelatin (Rosenberg, 1994). Dried gels were scanned with a transparency scanner, and images were analyzed by densitometry. The relative lysis of an individual sample was expressed as the integrated density value of its band and divided by the protein content of the sample.

MCA stroke (MCE model) [2] = test: MCA stroke (MCE model): tissue water content by wet/dry weight; assay type: in vivo, Wistar rats; details: 8 hr after stroke
Description: For large MCA strokes with malignant cerebral edema (MCE), the inventors first embolized microparticles (Nakabayashi et al., 1997) [polyvinyl alcohol (PVA) particles; […] […] TTC(−) portions of the involved hemisphere. […] Of these, 15 rats were used for validation of drug action (mortality, tissue water and glucose) and 5 rats were used for determination of drug distribution. […] For stroke size, stained sections were photographed and images were analyzed (Scion Image) to determine the percent of the involved hemisphere occupied by TTC(−) tissue; no correction for edema was performed. For some determinations of water or SUR1 protein content, individual coronal sections were divided under magnification into 3 parts: (i) the non-involved, control hemisphere; (ii) the TTC(+) portion of the involved hemisphere; (iii) the TTC(−) portion of the involved hemisphere. For each animal, pooled tissues from the 3 parts were then processed for tissue water measurements or for Western blots. Tissue water was quantified by the wet/dry weight method (Hua et al., 2003). Tissue samples were blotted to remove small quantities of adsorbed fluid. Samples were weighed with a precision scale to obtain the wet weight (WW), dried to constant weight at 80° C. and low vacuum, and then reweighed to obtain the dry weight (WD). The percent H2O of each tissue sample was then calculated as (WW-WD)×100/WW.

thromboembolic stroke = test: Thromboembolic stroke with rtPA reperfusion at 6 hr: hemorrhagic conversion; assay type: in vivo, spontaneously hypertensive rats; details: rtPA 10 mg/kg i.v. at 6 hr, 24 hr after stroke
Description: A rodent model of thromboembolic stroke was used (Aoki et al., 2002; Kijkhuizen et al., 2001; Kano et al., 2000; Sumii et al., 2002; Tejima et al., 2001). […] Sumii et al., 2002). Rectal temperature was maintained at 37° C. with a thermostat-controlled heating pad. The right femoral artery was cannulated, and physiological parameters, including temperature, mean blood pressure, pH, pO2, and pCO2, glucose were monitored. Temporary focal ischemia was obtained with an embolic model that used allogeneic clots to occlude the MCA. Allogeneic, thrombin-induced, fibrin-rich blood clots were prepared using methods adapted from […] et al. (Asahi et al., 2000; […] et al., 2003; Sumii et al., 2002). Seven clots, 1.5 mm long, were used for embolizing. Using a ventral cervical incision, the internal and external carotid arteries were exposed. The external carotid artery and pterygopalatine arteries were ligated. Removable surgical clips were applied to the common and internal carotid arteries. The modified PE-50 catheter containing the clots was inserted retrograde into the external carotid artery and advanced up to the internal carotid artery. The temporary clips were removed, and the clots were injected. Incisions were closed. […] Physiological parameters, including temperature, mean blood pressure (tail cuff plethysmography), blood gases and glucose were monitored. […]

[3] = rat, in vivo
rodent model of stroke = test: Rodent model of stroke, mortality and hemisphere water (Example 9); assay type: in vivo, rat; details: n=5 in each group
MCA stroke (MCE model) [4] = test system: MCA stroke (MCE model); set-up: species or system Wistar rats; details: rat, in vivo, sc

With “5′-GGCCGAGTGGTTCTCGGT-3′ (chemistry not given here) [AS-ODN, antisense oligodeoxynucleotide used to knock down SUR1 expression]” the “Depolarization of R1 astrocytes on Na azide” value (SUR1) was “little or no depolarization”, the “Depolarization of R1 astrocytes on Na azide” value (SUR1; listed as SUR1KD) was 8.7±1.7 mV and the “SUR1 expression in gliotic capsule (immunoblot)” value (SUR1; ODN infused for 14 days, compared with scrambled ODN) was “significant reduction in SUR1 expression”. For the same molecule, the “Membrane blebbing after exposure to Na azide” value (SUR1; R1 astrocytes) was “not observed”.

With `CC1=NS(=O)(=O)c2cc(Cl)ccc2N1` [diazoxide] the “Cell morphology (blebbing) on exposure to channel opener” value ([1]; phase contrast, observed over 30 min) was “developed progressive blebbing consistent with cytotoxic edema”.

For `COc1ccc(Cl)cc1C(=O)NCCc1ccc(S(=O)(=O)NC(=O)NC2CCCCC2)cc1` [glibenclamide], the “Gelatinase activity in presence of compound” value (MMP-9 & MMP-2) was “the same as that assayed without”, the “Rise of water in TTC(+) tissue over uninvolved hemisphere” value (MCA stroke (MCE model) [2]) was 2.5% and the “Rise of water in involved hemisphere over control hemisphere” value (MCA stroke (MCE model) [2]) was 2.0%. For the same molecule, the “Necrotic death (propidium iodide) induced by Na azide” value ([1]; Na azide 1 mM, glibenclamide 1 μM) was “largely prevented”, the “Animals with hemorrhagic conversion” value (thromboembolic stroke; co-treated with glibenclamide 1.5 μg/kg i.v. plus pump 300 μM at ½ μl/hr) was 1/5 and the “Animals showing no evidence of hemorrhage” value (thromboembolic stroke; co-treated with glibenclamide) was 4/5. The “Serum glucose at 8 hr” value [3] was 93 ± 3 mg/dL and the “Excess water in stroke hemisphere compared with saline-treated rats” value (rodent model of stroke) was “only half as much excess water”.

For “BODIPY-FL-glyburide [BODIPY-glibenclamide]”, the “Water in TTC(+) tissue of involved hemisphere” value (MCA stroke (MCE model) [2]) was 82.7±1.4% and the “Mortality during 7 days after MCA stroke” value (MCA stroke (MCE model) [4]) was 40%.
